# Columns and labels:
# [1] = system: deoxyribonucleic acid polymerase; experiment: In vivo nuclear deoxyribonucleic acid polymerase activity; parameters: species or system mouse
# Method: CF1 male mice (~30 g) were implanted with 2×10^6 Ehrlich ascites tumor cells, intraperitoneally on Day 0. Compound I was suspended by homogenation in 0.05% polysorbate.80-water and administered intraperitoneally at 10 and 20 mg/kg for 9 days to determine its effectiveness for inhibition of tumor growth. Mice were sacrificed on Day 10, and the ascites fluid was collected from the peritoneal cavity. The volume and ascrit (packed cell volume) were determined for each animal and the percent inhibition of tumor growth was calculated. For the metabolic studies, mice were treated on Days 8 and 9 with 10 mg/kg of Compound I, intraperitoneally. The animal was sacrificed on Day 10 and the ascites fluid harvested. The in vitro metabolic studies were performed at […] final concentration of Compound I.
# In vitro and in vivo nuclear deoxyribonucleic acid polymerase activity was determined on isolated Ehrlich ascites cell nuclei. The incubation was that described by Sawada et al [Can. Res., 34, 3341 (1974)] except that [methyl-^3 H] deoxythymidine triphosphate (82.4 Ci/mmol) was used. The acid insoluble nucleic acid was collected on GF/F filters and counted. Nuclear ribonucleic acid polymerase activities were determined on enzymes isolated from nuclei. […] The acid insoluble ribonucleic acid was collected on nitrocellulose filters and counted.
# Acetyl CoA Carboxylase = target: T1, Acetyl CoA Carboxylase (Mus musculus, UniProt Q5SWU9); experiment: In vitro liver enzyme study: acetyl CoA carboxylase; format: biochemical; settings: in vitro CF1 liver
# T1 construct: 10% homogenates of CF1 male mouse liver; from tissue; host or cells: CF1 male mouse liver, 10% homogenate
# Method: In vitro enzymatic studies were determined using 10% homogenates of CF1 male mouse liver with 50-200 μM of test drugs. In vivo enzymatic studies were determined using 10% homogenates of liver from CF1 male mice obtained after administering the agents for 16 days at a dose ranging from 2.5-20 mg/kg/day intraperitoneally. The liver homogenates for both in vitro and in vivo studies were prepared in 0.25M sucrose and 0.001M (ethylenedinitrilo)tetraacetic acid. Acetyl coenzyme A synthetase and adenosine triphosphate dependent citrate lyase activities were determined spectrophotometrically at 540 nm as the hydroxylamate of acetyl coenzyme A formed after 30 min at 37° C. Mitochondrial citrate exchange was determined by the procedure of Robinson et al [Eur. J. Biochem., 216, 63 (1970)] using ^14 C-sodium bicarbonate (41 mCi/mmol) incorporated into mitochondrial ^14 C-citrate after isolating rat mitochondria (9000 g×10 min) from the homogenates. The exchanges of the ^14 C-citrate were determined after incubating the mitochondrial fraction which was loaded with labeled citrate and test drugs for 10 min. Then the radioactivity was measured in the mitochondrial and supernantant fractions in scintillation fluid and expressed as a percentage. Cholesterol side chain oxidation was determined by the method of Kritchevsky and Tepper [Artherosclerosis, 18, 93 (1973)] using (26-^14 C) cholesterol (50 mCi/mmol) and mitochondria isolated from rat liver homogenates. […] Fatty acid synthetase activity was determined by the method of Brady et al [J. Biol. Chem., 235, 3093 (1960)] using [2-^14 C] malonyl-coenzyme A (37.5 mCi/mmol) which was incorporated into newly synthesized fatty acids that were extracted with ether and counted. Acyl transferase activity was determined with glycerol-3phosphate [L-2-^3 H(N)] […] HCl and counted. Phosphatidate phosphohydrolase activity was measured as the inorganic phosphate released after 30 min from phosphatidic acid by the method of Mavis et al [J. Lipid Res., 19, 467 (1978)]. […]
substance,measurement,setting,value
{Cu[(CH3)3 N.BH2 CO2 ]2.(CH3)3 N.BH2 COOH} [Compound I],Nuclear deoxyribonucleic acid polymerase activity reduced,[1],62%
same,Deoxyribonucleic acid polymerase activity,[1]; 10 mg/kg/day I.P. on Days 8 and 9,38 ± 5 % Control
same,Acetyl CoA Carboxylase,Acetyl CoA Carboxylase; 50 μM,96 ± 6 Percent Control
same,Acetyl CoA Carboxylase,Acetyl CoA Carboxylase; 100 μM,93 ± 5 Percent Control
same,Acetyl CoA Carboxylase,Acetyl CoA Carboxylase; 200 μM,92 ± 5 Percent Control

# — patent publication US4550186A, “Binuclear copper (II) carboxylates formed from amine-carboxyboranes” (Duke University, priority 1983, dated 1985)
